System: 5-alpha reductase (5AR)
Assay: Analysis of the ability of inhibition of 5AR activity (β-NADPH absorbance)
Format: biochemical, Sprague Dawley rats
Settings: finasteride 100 uM, rat prostate enzyme source, 7.5 mM testosterone, 30 minutes
Method: In order to prepare the 5AR enzyme source, first, 15-week-old Sprague Dawley rats (obtained from Coretech) were kept under CO2 inhalation anesthesia, and then the prostate tissue was excised. After washing 200 mg of the excised tissue twice with PBS at pH 7.4, 10 ml of lysis buffer {20 mM sodium phosphate containing 0.32 M sucrose and 1 mM ethylenediaminetetraacetic acid (EDTA) at pH 6.5} was added, followed by homogenizing the mixture by a glass homogenizer. The homogenate was centrifuged at 4° C. and 5,000 rpm for 15 minutes to take the supernatant and quantify a protein using Brad Ford reagent, and then the protein was used as a 5AR enzyme source. The remaining homogenate was stored at −70° C.
The ability to inhibit 5AR activity was measured using the method of Nahata and Dixit {Andrologia, 46(6):592-601, 2014}. In a 96-well plate, the enzyme source (0.8 mg/ml protein) prepared as in 2-2, a solution obtained by dissolving the solvent extract prepared in 2-1. in methanol (50 ug/ml), 7.5 mM testosterone, and 300 uM β-NADPH were reacted at 37° C. Thereafter, absorbance according to the change in the amount of β-NADPH at 350 nm was measured every 5 minutes for a total of 30 minutes. The measurement value was calculated using a standard graph of β-NADPH, and the unit was expressed as pg/ml. […]

## CC(C)(C)NC(=O)[C@H]1CC[C@H]2[C@@H]3CC[C@H]4NC(=O)C=C[C@]4(C)[C@H]3CC[C@]12C [finasteride]
  concentration of β-NADPH in the reaction solution at the end of the reaction (5AR activity inhibition): concentration of β-NADPH increased compared to that in the negative control group

— patent US12263199B2, “Use of Sida rhombifolia” (priority 2019, dated 2025)
